Measurements from PMC10290391, “Targeted degradation of ⍺-synuclein aggregates in Parkinson’s disease using the AUTOTAC technology” (Molecular Neurodegeneration, 2023).

Columns and labels:
[1] = test system: HEK293A cells transduced with h-α-syn PFFs; experiment: Immunocytochemistry in HEK293A cells transduced with h-α-syn PFFs; type: cell-based, human
Description: Recombinant human α-syn (1–140) were obtained from NKMAX (SNA2001L). In vitro fibrillization was performed by diluting recombinant α-syn monomers to 1 mg/mL in sterile PBS, then incubating at 37 °C with constant agitation at 1,000 rpm for seven days. The fibrillization was verified by thioflavin T and sedimentation assays. The ability to form phospho-α-syn (S129) was also assessed by immunocytochemistry. In addition, to determine whether the generated PFFs act as seeds to accumulate endogenous α-syn, an adenovirus that expresses c-Myc-His-tagged human α-syn (gifted from lab of S.J.L) was used to infect cultured cells at an MOI of 10, followed by a fractionation assay. The administration of PFFs into 293A cells was done with protein delivery reagent (BioPORTER QuikEase Protein Delivery Kit, Sigma) following the provider’s instruction. The mouse α-syn PFFs were obtained from StressMarq (SPR-324). Prior to treatment, PFFs were sonicated at 20% amplitude, 1 s pulse on and off for 30 s (SONICS Vibra Cell sonicator, Merck Z412619). For cells, α-syn monomers and PFFs were transduced at 1 µg/mL.
Cells were fixed with 4% paraformaldehyde (PFA) for 20 min at room temperature, followed by permeabilization with 0.1% Triton X-100 buffer for 15 min. The cells were blocked with 2% bovine serum albumin (BSA) in PBS for 1 h at room temperature. Then, the cells were incubated with primary antibodies diluted in the blocking buffer overnight at 4 °C. After washing with PBS, the slides were incubated with AlexaFluor-conjugated secondary antibodies for 1 h at room temperature. After mounting the slides with mounting solution containing DAPI, the images were captured on an LSM700 confocal microscopy (Carl Zeiss).

p62 [2] = target: T1, p62 (Homo sapiens, UniProt Q13501); experiment: Western blot of p62 oligomerization in HeLa cells; type: cell-based
T1 construct: endogenous in cells; host or cells: HeLa
T1 sequence (Q13501 whole entry): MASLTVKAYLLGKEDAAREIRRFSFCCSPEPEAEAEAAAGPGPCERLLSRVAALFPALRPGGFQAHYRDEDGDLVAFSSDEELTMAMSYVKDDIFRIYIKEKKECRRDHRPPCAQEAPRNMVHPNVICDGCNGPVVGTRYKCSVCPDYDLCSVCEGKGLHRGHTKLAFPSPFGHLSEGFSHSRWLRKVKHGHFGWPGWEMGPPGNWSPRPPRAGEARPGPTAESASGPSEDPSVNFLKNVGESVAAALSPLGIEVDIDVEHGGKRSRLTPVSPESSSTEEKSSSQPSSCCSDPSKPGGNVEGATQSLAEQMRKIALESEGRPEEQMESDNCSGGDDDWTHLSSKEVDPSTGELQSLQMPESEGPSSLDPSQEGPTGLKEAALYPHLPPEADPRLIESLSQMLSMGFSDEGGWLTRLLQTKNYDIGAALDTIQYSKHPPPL
Description: For the separation of Triton X-100 soluble and insoluble fractions for monitoring α-syn, cells were washed with PBS and lysed in Triton X-100 buffer (50 mM Tris / 150 mM NaCl / 100 mM EDTA / 1% Triton X-100, pH 7.6) containing protease and phosphatase inhibitors for 30 min on ice. The lysates were centrifuged at 12,000 rpm for 30 min, and the soluble supernatant was taken. The remaining pellets were washed with Triton X-100 buffer, followed by centrifugation at 12,000 rpm for 20 min. The supernatants were discarded, and the resulting insoluble pellets were resuspended in laemli buffer containing 1% SDS. Samples were subjected to SDS-PAGE. After blocking with 5% milk and washing process, the membranes were incubated with primary antibodies overnight at 4 °C, followed by washing with PBS-T and incubation with horseradish peroxidase-conjugated secondary antibodies. Immunoreactive bands were detected using ECL reagents (Thermo Fisher Scientific, 32,106). For non-reducing SDS-PAGE, cell lysates were mixed with 4 × laemli buffer containing no 2-mercaptoethanol. For reducing SDS-PAGE, cells were lysed by RIPA buffer (150 mM NaCl, 1% Triton X-100, 1% sodium deoxycholate, 0.1% Tris–HCl, pH 7.5, 2 mM EDTA) and prepared with 5 × protein sample buffer containing 2-mercaptoethanol (Elpis Biotech, EBA-1052). Densitometry of developed bands was analyzed with ImageJ (NIH, Bethesda).

p62 and α-syn aggregates = target: T2, p62 and α-syn aggregates (Homo sapiens, UniProt P37840+Q13501); experiment: Proximity ligation assay (PLA) of p62 and α-syn in HEK293A cells; type: cell-based; settings: 1 μM, 6 h
T2 construct: Recombinant human α-syn (1–140) were obtained from NKMAX (SNA2001L); endogenous in cells; host or cells: HEK293A cells transduced with h-α-syn PFFs
Description: Proximity ligation assays were conducted using a PLA kit (Sigma-Aldrich) according to the manufacturer’s protocol. 293A Cells were seeded on coverslips and cultured for 24 h. After fixation with 4% PFA, the cells were permeabilized with 0.1% Triton X-100. The cells were incubated with antibodies for p62 (Abcam; ab56319) and alpha-synuclein aggregates (Abcam; ab209538) overnight at 4 °C. After washing with PLA washing buffer, the cells were hybridized, ligated and amplified by rolling circle. Coverslips were mounted on slides using mounting medium containing DAPI, and the images were captured by confocal microscopy (Zeiss).

p62 [3] = target: T3, p62 (Mus musculus, UniProt Q64337); experiment: Western blot in wild-type and p62-/- MEFs transduced with α-syn PFFs; type: cell-based; settings: 1 μM, 12 h
T3 construct: endogenous in cells; host or cells: wild-type and p62-/- MEFs (Keiji Tanaka's laboratory)
T3 sequence (Q64337 whole entry): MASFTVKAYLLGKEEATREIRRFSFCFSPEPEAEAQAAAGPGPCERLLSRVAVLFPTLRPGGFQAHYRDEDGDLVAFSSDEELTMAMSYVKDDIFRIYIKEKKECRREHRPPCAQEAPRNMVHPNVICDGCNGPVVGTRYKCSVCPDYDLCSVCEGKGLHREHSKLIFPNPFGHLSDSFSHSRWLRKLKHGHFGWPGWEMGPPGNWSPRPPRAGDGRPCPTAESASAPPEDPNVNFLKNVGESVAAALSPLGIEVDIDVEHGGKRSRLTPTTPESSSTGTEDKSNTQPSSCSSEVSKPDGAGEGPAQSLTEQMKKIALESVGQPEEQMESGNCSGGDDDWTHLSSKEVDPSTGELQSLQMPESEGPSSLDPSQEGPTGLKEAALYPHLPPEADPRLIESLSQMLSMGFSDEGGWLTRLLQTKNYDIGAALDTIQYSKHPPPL
Text: Wild type human neuroblastoma cells (SH-SY5Y) and Hela were obtained from Korean Cell Line Bank. SH-SY5Y α-syn A53T cells, COS7 cells and 293A cell line were kindly gifted from S.J.L. lab. COS7 cells, 293A cells, wild-type and p62^−/− MEF cells, and wild type or A53T mutant α-syn SH-SY5Y cells were maintained in Dulbecco’s Modified Eagle’s Medium (DMEM) containing 10% fetal bovine serum (FBS). Wild-type and p62^−/− MEFs were obtained from Keiji Tanaka’s laboratory (Tokyo Metropolitan Research Institute, Japan). Cells were incubated at 37 °C in a 5% CO2 humidified chamber. The differentiation of SH-SY5Y α-syn A53T cells was done by 10 µM retinoic acid for 7 days prior to subsequent experiments.
For the separation of Triton X-100 soluble and insoluble fractions for monitoring α-syn, cells were washed with PBS and lysed in Triton X-100 buffer (50 mM Tris / 150 mM NaCl / 100 mM EDTA / 1% Triton X-100, pH 7.6) containing protease and phosphatase inhibitors for 30 min on ice. The lysates were centrifuged at 12,000 rpm for 30 min, and the soluble supernatant was taken. The remaining pellets were washed with Triton X-100 buffer, followed by centrifugation at 12,000 rpm for 20 min. […] Immunoreactive bands were detected using ECL reagents (Thermo Fisher Scientific, 32,106). […] Densitometry of developed bands was analyzed with ImageJ (NIH, Bethesda).

SH-SY5Y α-syn A53T cells = experiment: MitoTracker Red analysis in SH-SY5Y α-syn A53T cells treated with rotenone; type: cell-based, human; settings: 0.1 μM, 24 h; vs vehicle-treated cells
Description: Adenovirus overexpressing human wild-type SNCA was kindly gifted from the lab of S.J.L. COS7 cells were infected with the adenovirus overexpressing human α-syn at 0.8 × 10^8 pfu and incubated at 37 °C for 24 h. When the confluency reached 90%, the cells were split onto 6-well plates for further experiments. The α-syn aggregation was induced by the treatment of 100 nM rotenone (Sigma-Aldrich, R8875) for 56 h. For the MitoTracker analyses in SH-SY5Y α-syn A53T cells, rotenone was treated at 1 µM for 48 h with the co-treatment of 100 nM ATC161 for 24 h, then MitoTracker Red CMXRos (Invitrogen; M7512) was used to stain intact mitochondria following the manufacturer’s instruction.

## Fc1ccc(COc2cccc(CNCCOCCOCCNc3cccc(-c4cc(-c5ccc6c(c5)OCO6)n[nH]4)c3)c2)cc1 [ATC161, 3-(3-(benzo[d][1,3]dioxol-5-yl)-1H-pyrazol-5-yl)-N-(2-(2-(2-((3-((4-fluorobenzyl)oxy)benzyl)amino)ethoxy)ethoxy)ethyl)aniline]
[1]; 0.1 μM, 48 h
  number of phospho-H2AX+ foci (DNA double strand breaks): robust efficacy to reduce the number of phospho-H2AX^+ foci
[1]; 1 μM, 24 h
  reduction in number of α-syn+ cytosolic puncta: 55%
p62 [2]; 1 μM, 24 h
  p62 oligomerization compared with the other Autotac compounds: most efficiently facilitated p62 oligomerization
p62 [2]; dose-dependent up to 1,000 nM
  concentration inducing p62 oligomerization: ~ 1 nM
p62 and α-syn aggregates; cells transduced with α-syn monomers
  PLA+ signals of p62 with α-syn monomers: failed to induce PLA^+ signals
p62 and α-syn aggregates; α-syn PFF-transduced cells
  interaction between p62 and α-syn aggregates (PLA puncta): dramatically increased the number and sizes of PLA puncta
p62 [3]
  lipidation of LC3 in the absence of p62: failed to induce the lipidation of LC3 into LC3-II
SH-SY5Y α-syn A53T cells
  MitoTracker fluorescence (mitochondrial integrity): increased level of MitoTracker signals
